Assay [1] addresses human PDE4D catalytic domain (UniProt no. Q08499 [S380-L740]) (Homo sapiens (Human), UniProt Q08499). Nature of the assay: PDE4 assay (TR-FRET, cAMP hydrolysis). In kind it is biochemical. The settings on record: read-out: PDE4 IC50 range. In a few lines:
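The human PDE4D catalytic domain (S380-L740) was incubated with unlabelled plus FAM-labelled cAMP and titrated compound, briefly. Product AMP was detected by Tb-nanoparticle TR-FRET. IC50 (nM) came from Tb-normalized signal scaled between DMSO and 10 microM reference-inhibitor controls.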

In assay [2] the test system is Human peripheral blood mononuclear cells (PBMC). Nature of the assay: TNF-α release from LPS-stimulated PBMC. Type of assay: cell-based. Particulars: Lipopolysaccharide 1 microg/ml, 18 hours, AlphaLISA, read-out: TNF-α IC50 range. An outline of the steps:
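Thawed human PBMC in serum-free buffer with 0.5% human serum albumin were stimulated with 1 microg/ml LPS alongside titrated compound for 18 h at 37 °C. Supernatant TNFα was measured by AlphaLISA at 615 nm, and IC50 was derived relative to LPS-only and 10 microM reference PDE4 inhibitor controls.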

A value given as a limit tells only on which side of the number the result lay.

Sequence of human PDE4D catalytic domain (Q08499 380-740): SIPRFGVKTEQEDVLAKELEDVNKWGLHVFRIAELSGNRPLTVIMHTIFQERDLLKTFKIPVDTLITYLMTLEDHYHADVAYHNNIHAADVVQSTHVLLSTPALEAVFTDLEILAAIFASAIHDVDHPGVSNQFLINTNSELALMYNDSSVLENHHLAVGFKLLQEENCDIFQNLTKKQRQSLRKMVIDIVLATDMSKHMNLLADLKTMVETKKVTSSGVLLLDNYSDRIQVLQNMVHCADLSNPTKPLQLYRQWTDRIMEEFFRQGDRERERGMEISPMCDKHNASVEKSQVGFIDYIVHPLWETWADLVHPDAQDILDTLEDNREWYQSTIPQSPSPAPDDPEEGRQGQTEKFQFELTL

With `CNC(=O)c1ccc(C(=O)OC2CN(c3nc4c(c(N(C)C5CCOCC5)n3)[S+](O)CC4)C2)cc1` (stereo not drawn) [Example 51, [1-[4-[methyl(tetra-hydropyran-4-yl)amino]-5-oxido-6,7-dihydro-thieno[3,2-d]pyrimidin-5-ium-2-yl]azetidin-3-yl] 4-(methylcarbamoyl)-benzoate], the IC50 in assay [1] and in assay [2] was less than 100 nM in each case.

Consider `COC(=O)N1CCC(C(=O)OC2CN(c3nc4c(c(N(C)C5CCOCC5)n3)[S+](O)CC4)C2)CC1` (stereo not drawn) [Example 52, O1-methyl O4-[1-[4-[methyl(tetrahydro-pyran-4-yl)amino]-5-oxido-6,7-dihydro-thieno[3,2-d]pyrimidin-5-ium-2-yl]azetidin-3-yl] piperidine-1,4-dicarboxylate], for which the IC50 in assay [1] and in assay [2] was less than 100 nM throughout.

As to `CN(C)C(=O)c1ccc(C(=O)OC2CN(c3nc4c(c(N(C)C5CCOCC5)n3)[S+](O)CC4)C2)cc1` (stereo not drawn) [Example 53, [1-[4-[methyl(tetra-hydropyran-4-yl)amino]-5-oxido-6,7-dihydro-thieno[3,2-d]pyrimidin-5-ium-2-yl]azetidin-3-yl] 4-(dimethylcarbamoyl)-benzoate], the IC50 in assay [1] and in assay [2] was less than 100 nM in each case.

As to `CN(c1nc(N2CC(OC(=O)c3ccc(S(C)(=O)=O)cc3)C2)nc2c1[S+](O)CC2)C1CCOCC1` (stereo not drawn) [Example 54, [1-[4-[methyl(tetra-hydropyran-4-yl)amino]-5-oxido-6,7-dihydro-thieno[3,2-d]pyrimidin-5-ium-2-yl]azetidin-3-yl] 4-methylsulfonyl-benzoate], the IC50 in assay [1] and in assay [2] was less than 100 nM throughout.

Turning to `CN(C)C(=O)N1CCC(C(=O)OC2CN(c3nc4c(c(N(C)C5CCOCC5)n3)[S+](O)CC4)C2)CC1` (stereo not drawn) [Example 55, [1-[4-[methyl(tetra-hydropyran-4-yl)amino]-5-oxido-6,7-dihydro-thieno[3,2-d]pyrimidin-5-ium-2-yl]azetidin-3-yl] 1-(dimethylcarbamoyl)-piperidine-4-carboxylate], the IC50 in assay [1] and in assay [2] was less than 100 nM each time.

In the case of `CCS(=O)(=O)c1cccc(C(=O)OC2CN(c3nc4c(c(N(C)C5CCOCC5)n3)[S+]([O-])CC4)C2)c1` (stereo not drawn) [Example 56, [1-[4-[methyl(tetra-hydropyran-4-yl)amino]-5-oxido-6,7-dihydro-thieno[3,2-d]pyrimidin-5-ium-2-yl]azetidin-3-yl] 3-ethylsulfonylbenzoate], the IC50 in assay [1] and in assay [2] was less than 100 nM each time.

With `CCS(=O)(=O)c1ccc(C(=O)OC2CN(c3nc4c(c(N(C)C5CCOCC5)n3)[S+]([O-])CC4)C2)cc1` (stereo not drawn) [Example 57, [1-[4-[methyl(tetra-hydropyran-4-yl)amino]-5-oxido-6,7-dihydro-thieno[3,2-d]pyrimidin-5-ium-2-yl]azetidin-3-yl] 4-ethylsulfonylbenzoate], the IC50 in assay [1] and in assay [2] was less than 100 nM each time.

Consider `CNS(=O)(=O)c1ccc(C(=O)OC2CN(c3nc4c(c(N(C)C5CCOCC5)n3)[S+]([O-])CC4)C2)cc1` (stereo not drawn) [Example 58, [1-[4-[methyl(tetra-hydropyran-4-yl)amino]-5-oxido-6,7-dihydro-thieno[3,2-d]pyrimidin-5-ium-2-yl]azetidin-3-yl] 4-(methylsulfamoyl)-benzoate], for which the IC50 in assay [1] and in assay [2] was less than 100 nM in each case.

In the case of `CC(C)S(=O)(=O)c1cccc(C(=O)OC2CN(c3nc4c(c(N(C)C5CCOCC5)n3)[S+](O)CC4)C2)c1` (stereo not drawn) [Example 59, [1-[4-[methyl(tetra-hydropyran-4-yl)amino]-5-oxido-6,7-dihydro-thieno[3,2-d]pyrimidin-5-ium-2-yl]azetidin-3-yl] 3-isopropylsulfonyl-benzoate], the IC50 in assay [1] and in assay [2] was less than 100 nM in each case.

Consider `CC(C)S(=O)(=O)c1ccc(C(=O)OC2CN(c3nc4c(c(N(C)C5CCOCC5)n3)[S+]([O-])CC4)C2)cc1` (stereo not drawn) [Example 60, [1-[4-[methyl(tetra-hydropyran-4-yl)amino]-5-oxido-6,7-dihydro-thieno[3,2-d]pyrimidin-5-ium-2-yl]azetidin-3-yl] 4-isopropylsulfonyl-benzoate], for which the IC50 in assay [1] and in assay [2] was less than 100 nM throughout.

In the case of `CN(c1nc(N2CC(OC(=O)c3ccc(C(=O)N4CCOCC4)cc3)C2)nc2c1[S+](O)CC2)C1CCOCC1` (stereo not drawn) [Example 61, [1-[4-[methyl(tetra-hydropyran-4-yl)amino]-5-oxido-6,7-dihydro-thieno[3,2-d]pyrimidin-5-ium-2-yl]azetidin-3-yl] 4-(morpholine-4-carbonyl)benzoate], the IC50 in assay [1] and in assay [2] was less than 100 nM throughout.

Turning to `CN(c1nc(N2CC(OC(=O)c3ccc(S(=O)(=O)C4CCCC4)cc3)C2)nc2c1[S+]([O-])CC2)C1CCOCC1` (stereo not drawn) [Example 62, [1-[4-[methyl(tetra-hydropyran-4-yl)amino]-5-oxido-6,7-dihydro-thieno[3,2-d]pyrimidin-5-ium-2-yl]azetidin-3-yl] 4-cyclopentylsulfonyl-benzoate], the IC50 in assay [1] and in assay [2] was less than 100 nM throughout.

For `CN(c1nc(N2CC(OC(=O)c3cccnc3)C2)nc2c1[S@+](O)CC2)C1CCOCC1` [Example 63, [1-[(5R)-4-[methyl-(tetrahydropyran-4-yl)amino]-5-oxido-6,7-dihydrothieno[3,2-d]pyrimidin-5-ium-2-yl]azetidin-3-yl] pyridine-3-carboxylate], the IC50 is 100 to 500 nM in assay [1] and less than 100 nM in assay [2].

As to `Cc1ccc(C(=O)OC2CN(c3nc4c(c(N(C)C5CCOCC5)n3)[S@+](O)CC4)C2)cc1` [Example 64, [1-[(5R)-4-[methyl-(tetrahydropyran-4-yl)amino]-5-oxido-6,7-dihydrothieno[3,2-d]pyrimidin-5-ium-2-yl]azetidin-3-yl] 4-methylbenzoate], the IC50 in assay [1] and in assay [2] was less than 100 nM throughout.

In the case of `O=C(OC1CN(c2nc3c(c(NC4CC5(COC5)C4)n2)[S+](O)CC3)C1)c1cscn1` (stereo not drawn) [Example 66, [1-[4-(6-oxaspiro[3.3]-heptan-2-ylamino)-5-oxido-6,7-dihydrothieno-[3,2-d]pyrimidin-5-ium-2-yl]azetidin-3-yl] thiazole-4-carboxylate], the IC50 in assay [1] and in assay [2] was less than 100 nM throughout.

On to `O=C(OC1CN(c2nc3c(c(NC4CC5(COC5)C4)n2)[S+]([O-])CC3)C1)C1CCOCC1` (stereo not drawn) [Example 67, [1-[4-(6-oxaspiro[3.3]-heptan-2-ylamino)-5-oxido-6,7-dihydro-thieno[3,2-d]pyrimidin-5-ium-2-yl]azetidin-3-yl] tetrahydropyran-4-carboxylate], for which the IC50 in assay [1] and in assay [2] was less than 100 nM each time.

Turning to `CC(=O)N1CC[C@H](Nc2nc(N3CC(OC(=O)c4cscn4)C3)nc3c2[S@+](O)CC3)C1` [Example 73, [1-[4-[[(3S)-1-acetyl-pyrrolidin-3-yl]amino]-5-oxido-6,7-dihydro-thieno[3,2-d]pyrimidin-5-ium-2-yl]azetidin-3-yl]thiazole-4-carboxylate], the IC50 is less than 100 nM in assay [1] and 100 to 500 nM in assay [2].

In the case of `CC(=O)N1CC[C@H](Nc2nc(N3CC(OC(=O)C4CCOCC4)C3)nc3c2[S@+](O)CC3)C1` [Example 74, [1-[4-[[(3S)-1-acetyl-pyrrolidin-3-yl]amino]-5-oxido-6,7-dihydro-thieno[3,2-d]pyrimidin-5-ium-2-yl]azetidin-3-yl]tetrahydropyran-4-carboxylate], the figures for the IC50 in assay [1] and in assay [2] were less than 100 nM and 100 to 500 nM, respectively.

For `CC(=O)N1CC[C@@H](Nc2nc(N3CC(OC(=O)C4CCOCC4)C3)nc3c2[S@+](O)CC3)C1` [Example 75, [1-[4-[[(3R)-1-acetyl-pyrrolidin-3-yl]amino]-5-oxido-6,7-dihydro-thieno[3,2-d]pyrimidin-5-ium-2-yl]azetidin-3-yl] tetrahydropyran-4-carboxylate], the IC50 in assay [1] and in assay [2] was more than 500 nM in each case.

As to `CC(=O)N1CCC(Nc2nc(N3CC(OC(=O)c4cscn4)C3)nc3c2[S+](O)CC3)CC1` (stereo not drawn) [Example 76, [1-[4-[(1-acetyl-4-piperidyl)amino]-5-oxido-6,7-dihydrothieno[3,2-d]pyrimidin-5-ium-2-yl]-azetidin-3-yl] thiazole-4-carboxylate], the half-maximal inhibitory concentration (IC50) in assay [1] is 100 to 500 nM; in assay [2], more than 500 nM.

With `CC(=O)N1CCC(Nc2nc(N3CC(OC(=O)C4CCOCC4)C3)nc3c2[S+](O)CC3)CC1` (stereo not drawn) [Example 77, [1-[4-[(1-acetyl-4-piperidyl)amino]-5-oxido-6,7-dihydrothieno[3,2-d]pyrimidin-5-ium-2-yl]azetidin-3-yl] tetra-hydropyran-4-carboxylate], the IC50 in assay [1] and in assay [2] was 100 to 500 nM each time.

The values above are taken from patent US11365204B2, “Substituted dihydrothienopyrimidines and their use as phosphodiesterase inhibitors” (UNION therapeutics A/S, priority 2017, dated 2022).
